Data: paper doi:10.1101/2023.07.11.548539v1, “A side-by-side comparison of peptide-delivered antisense antibiotics employing different nucleotide mimics” (bioRxiv, 2023)
Oligonucleotides are written 5' to 3', each unit as a sugar letter and its base; * is a phosphorothioate linkage, no mark a phosphodiester; rarer units and linkages stand in square brackets, end groups in braces. Plain capitals give the bases only. d = 2'-deoxy (DNA)

How the values were obtained:
Salmonella periplasm = experiment: MALDI-TOF analysis of ASO-peptide conjugate uptake; type: cell-based; set-up: key: -: Effect strength is represented by additional (+) signs.; Effect strength is represented by additional (+) signs.; ++: Effect strength is represented by additional (+) signs.; +++: Effect strength is represented by additional (+) signs; settings: summary grade; ASO conjugated to the carrier peptide
Protocol: The experiments were performed by modifying previously published protocols ([29]). From an overnight culture of Salmonella, a second culture was inoculated (1:100) and grown to OD600 of 0.5 (corresponding to ∼2×10^8 cfu/mL). These bacterial cells was washed twice in MHB and resuspended in 95 µl of MHB with an additional incubation at 37°C for 5-10 min. Sterile ASO-peptide conjugates were prepared at concentrations of 200 µM. 5 µl of the 200 µM working solutions were added to 95 µl of bacteria in culture media, leading to a final concentration of the compounds of 10 µM. 5 µl of H2O was added as a negative control. The tubes were incubated at 37°C for 15 min with shaking at 300 rpm. Subsequently, they were centrifuged at 8,000 x g for 5 min at 4 °C. The supernatant was aspirated and the pellet was washed with 0.01 M Tris-HCl before being resuspended in 200 µl of 0.01M Tris-HCl containing 0.5 M Sucrose, 150 µg/ml lysozyme, 10 mM EDTA and incubated at 37 °C overnight. These tubes were then centrifuged at 2,000 x g at 4°C for 10 min. The supernatant obtained represents the periplasm. The pellet containing spheroplasts was gently washed with 0.01 M Tris-HCl containing 0.5 M Sucrose and resuspended in 20 ml of B-PER™ Bacterial Protein Extraction Reagent (Thermo Fischer Scientific) for 1 h. After this, the spheroplasts were subjected to sonication (20kHz for 2×10 s), incubated on ice for 5 min and centrifuged at 20,000 x g for 30 min at 4 °C. The supernatant represents the cytoplasm. Both the periplasm and cytoplasm fragments were then mixed with 2, 6-Dihydroxyacetophenone (DHAP) in ACN 1:1, spotted on a MALDI plate and analyzed for MALDI-TOF-MS in a Bruker DaltonicsUltrafleXtreme Instrument. The experiment was performed two times and data of one representative experiment are shown.

[1] = tested on: fabF (3-oxoacyl-[acyl carrier protein] synthase 2) transcript; experiment: RNA-seq, fabF transcript; type: cell-based, Salmonella enterica serovar Typhimurium strain SL1344; settings: 5 µM KFF-ASO conjugate, 15 min
Protocol: RNA isolation was performed using previously published protocols ([30],[31]). Bacterial overnight cultures were diluted 1:100 in fresh MHB and grown to OD600 0.5. The cultures were diluted to approximately 10^6 cfu/ml in non-cation-adjusted MHB. Afterwards, an aliquot of the bacterial solution was transferred into 5 ml low-binding tubes (LABsolute) containing the ASOs solution (adjusted such that the final concentration was 5 μM for all tested compounds). As a negative control, cells were treated with the respective volume of sterile nuclease-free water, which was used as solvent for the ASOs. […]
Total RNA was purified from bacterial pellets using the miRNeasy Mini kit (Qiagen) according to protocol #3 described in ([30]). […] RNA concentration was measured with a NanoDrop spectrophotometer.
(§1) For transcriptomic analyses, RNA samples were processed and subjected to RNA-seq at Core Unit SysMed (University of Würzburg, Germany). […] Sequencing of pooled libraries, spiked with 5% PhiX control library, was performed at 10 million reads/sample in single-end mode with 75 nt read length on the NextSeq 500 platform (Illumina) using High output sequencing kits. […]
RNA-seq data analysis was performed similarly to our previous analysis of PNA activity in S. enterica ([30]). Briefly, adapters and low-quality bases (Phred quality score <10) of raw reads were trimmed using BBduk. […]

Salmonella = experiment: RNA-seq, global transcriptome (PCA); type: cell-based, Salmonella enterica serovar Typhimurium strain SL1344; settings: 5 µM KFF-ASO conjugate or peptide, 15 min; two independent RNA-seq experiments
Protocol: RNA isolation was performed using previously published protocols ([30],[31]). Bacterial overnight cultures were diluted 1:100 in fresh MHB and grown to OD600 0.5. The cultures were diluted to approximately 10^6 cfu/ml in non-cation-adjusted MHB. Afterwards, an aliquot of the bacterial solution was transferred into 5 ml low-binding tubes (LABsolute) containing the ASOs solution (adjusted such that the final concentration was 5 μM for all tested compounds). As a negative control, cells were treated with the respective volume of sterile nuclease-free water, which was used as solvent for the ASOs. After incubating the samples for 15 min at 37 °C, RNAprotect Bacteria (Qiagen) was added according to the manufacturer’s instructions. Following a 10-min incubation, cells were pelleted at 4 °C and 21,100 × g for 20 min. The supernatant was discarded and pellets were either directly used or stored at –20°C (<1 day) for subsequent bacterial RNA isolation.
Total RNA was purified from bacterial pellets using the miRNeasy Mini kit (Qiagen) according to protocol #3 described in ([30]). Briefly, cells were resuspended in 0.5 mg/ml lysozyme (Roth) in TE buffer (pH 8.0) and incubated for 5 min. Afterwards, RLT buffer supplemented with β-mercaptoethanol, and ethanol were added according to the manufacturer’s instructions. After sample loading, column wash-steps were performed according to the manual. RNA concentration was measured with a NanoDrop spectrophotometer.
as §1, with “Germany). Sequencing was run using a previously published protocol ([31]).” for “Germany).”
RNA-seq data analysis was performed similarly to our previous analysis of PNA activity in S. enterica ([30]). Briefly, adapters and low-quality bases (Phred quality score <10) of raw reads were trimmed using BBduk. Then the RNA-seq reads were mapped to the S. enterica serovar Typhimurium reference genome and the three plasmids pSLT SL1344, pCol1B9 SL1344, and pRSF1010 SL1344 ([37]) using BBMap (v38.18) and genomic features were assigned using the featureCounts command of the Subread (2.0.1) package ([38]). […]
Downstream RNA-seq analysis was performed using packages from the R/Bioconductor project. Raw read counts of all conditions were imported into edgeR (v3.34.1) ([40]) and analysed for differential expression. To filter low-count reads, features with less than 1.38 counts per million (CPM) in at least 5 libraries were ignored for further analysis. […]

In the case of “DNA-PTO: 10mer phosphorothioate-modified DNA antisense oligomer, sequence CTCATACTCT, targeting acpP (antisense dC*dT*dC*dA*dT*dA*dC*dT*dC*dT)”, the “Uptake inside bacteria (MS)” value (Salmonella periplasm) is reported as “-”.

“LNA: 10mer 2'-4'-locked RNA antisense oligomer, sequence CTCATACTCT, targeting acpP (all LNA, backbone and methylation of C not given here)” was tested, and the “Uptake inside bacteria (MS)” value (Salmonella periplasm) was “-”.

“PMO: 10mer phosphorodiamidate morpholino antisense oligomer, sequence CTCATACTCT, targeting acpP (all phosphorodiamidate morpholino (PMO))” was tested, and the fabF transcript level [1] was “Reduction” and the “PCA cluster of the transcriptomic response” value (“PCA cluster” for short) (Salmonella) was “cluster 3”.

“PNA: 10mer peptide nucleic acid antisense oligomer, sequence CTCATACTCT, targeting acpP (all peptide nucleic acid (PNA))” was tested, and the fabF transcript level [1] was “Reduction” and the “PCA cluster” value (Salmonella) was “cluster 1”.

“RNA-F: 10mer 2'-fluorinated RNA antisense oligomer, sequence CTCATACTCT, targeting acpP (all 2'-fluoro, backbone and T or U not given here)” was tested, and the “Uptake inside bacteria (MS)” value (Salmonella periplasm) was “-”.

In the case of “RNA-MOE: 10mer 2'-methoxyethylated RNA antisense oligomer, sequence CTCATACTCT, targeting acpP (all 2'-MOE, backbone and methylation of C not given here)”, the “PCA cluster” value (Salmonella) is reported as “cluster 1” and the “Uptake inside bacteria (MS)” value (Salmonella periplasm) is reported as “-”.

In the case of “RNA-OMe: 10mer 2'-methylated RNA antisense oligomer, sequence CTCATACTCT, targeting acpP (all 2'-O-methyl, backbone and T or U not given here)”, the “PCA cluster” value (Salmonella) is reported as “cluster 1” and the “Uptake inside bacteria (MS)” value (Salmonella periplasm) is reported as “-”.
